≈ marks a conversion by molar mass, not a printed value. Structures can show the parent of a compound that is named as a salt. Where two headings read alike, the source gives them in different places.
Columns and labels:
Assay type in all cases: cell-based
[1] = tested on: Escherichia coli ATCC 25922; assay: Broth microdilution MIC, E. coli ATCC 25922 (MHIIB w & w/o 4 mM EDTA); conditions: for MIC: Escherichia coli, read-out: MIC E. coli ATCC 25922; for MIC E. coli ATCC 25922 + 4 mM EDTA: with 4 mM EDTA
Summary of the method: (§1)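 Two-fold dilutions from 64 to 0.0625 μg/ml final, 1% DMSO, were inoculated at ~5.0×10^5 cfu/ml in the strain's test medium and kept 20 h at 37 °C in ambient atmosphere. Colonies were grown on MHA, with S. pneumoniae on blood agar under 5% CO2.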

[2] = tested on: Streptococcus pneumoniae ATCC 49619; assay: Broth microdilution MIC, S. pneumoniae ATCC 49619; conditions: read-out: MIC S. pneumoniae ATCC 49619
Summary of the method: as §1

[3] = tested on: Staphylococcus aureus NRS384 (MRSA); assay: Broth microdilution MIC, S. aureus NRS384 (MRSA); parameters: MIC NRS 384 (MRSA): unit not given here; conditions: broth microdilution, 37° C., 20 hours; for MIC: Staphylococcus aureus, read-out: MIC NRS 384 (MRSA)
Summary of the method: as §1

[4] = tested on: Staphylococcus aureus ATCC 29213 (MSSA); assay: Broth microdilution MIC, S. aureus ATCC 29213 (MSSA); conditions: read-out: MIC S. aureus ATCC 29213 (MSSA)
Summary of the method: as §1

[5] = tested on: Bacillus subtilis ATCC 6633; assay: Broth microdilution MIC, B. subtilis ATCC 6633; conditions: read-out: MIC B. subtilis ATCC 6633
Summary of the method: as §1

[6] = tested on: Enterococcus faecalis ATCC 29212; assay: Broth microdilution MIC, E. faecalis ATCC 29212; conditions: read-out: MIC E. faecalis ATCC 29212
Summary of the method: as §1

[7] = tested on: Enterococcus faecium ATCC 700221 (VRE); assay: Broth microdilution MIC, E. faecium ATCC 700221 (VRE); parameters: MIC E. faecium ATCC 700221 (VRE): unit: ug/mL; conditions: broth microdilution, 37° C., 20 hours; for MIC: Enterococcus faecium, read-out: MIC E. faecium ATCC 700221 (VRE)
Summary of the method: as §1

[8] = ATCC25922, without EDTA, broth microdilution, 37° C., 20 hours
[9] = broth microdilution, 37° C., 20 hours
[10] = ATCC49619, broth microdilution, 37° C., 20 hours
[11] = ATCC6633, broth microdilution, 37° C., 20 hours
[12] = ATCC29212, broth microdilution, 37° C., 20 hours

SMILES	MIC [1, 8] [µg/mL]	MIC E. coli ATCC 25922 + 4 mM EDTA [1, 9]	MIC [2, 10] [µg/mL]	MIC [3] [µg/mL]	MIC [4, 9] [µg/mL]	MIC [5, 11] [µg/mL]	MIC [6, 12] [µg/mL]	MIC [7] [µg/mL]	MIC NRS 384 (MRSA) [3]	MIC E. faecium ATCC 700221 (VRE) [7]	MIC ([1]; ATCC25922, 20 h) [µg/mL]	MIC ([2]; ATCC49619, 20 h) [µg/mL]	MIC ([4]; 20 h) [µg/mL]	MIC ([5]; ATCC6633, 20 h) [µg/mL]	MIC ([6]; ATCC29212, 20 h) [µg/mL]
O=C1CC(Cn2ncc3nc(NCc4ccc(Cl)c(Cl)c4)[nH]c(=O)c32)CN1CCO (stereo not shown) [Compound 177, 5-((3,4-dichlorobenzyl)amino)-1-((1-(2-hydroxyethyl)-5-oxopyrrolidin-3-yl)methyl)-1H-pyrazolo[4,3-d]pyrimidin-7(6H)-one]	> 64	>64 µg/mL	4 (≈ 8.86 µM)	64 (≈ 142 µM)	64 (≈ 142 µM)	16 (≈ 35.5 µM)	32 (≈ 70.9 µM)	16 (≈ 35.5 µM)	–	–	–	–	–	–	–
O=c1[nH]c(NCc2ccc(Cl)c(Cl)c2)nc2cnn(CCOC3COC3)c12 [Compound 178, 5-((3,4-Dichlorobenzyl)amino)-1-(2-(oxetan-3-yloxy)ethyl)-1H-pyrazolo[4,3-d]pyrimidin-7(6H)-one]	> 64	>64 µg/mL	4 (≈ 9.75 µM)	–	4 (≈ 9.75 µM)	2 (≈ 4.87 µM)	8 (≈ 19.5 µM)	–	4/4	4/4	–	–	–	–	–
O=c1[nH]c(NCc2ccc(Cl)c(Cl)c2)nc2cnn(CCCOC3CC(O)C3)c12 (stereo not shown) [Compound 179, 5-((3,4-dichlorobenzyl)amino)-1-(3-(3-hydroxycyclobutoxy)propyl)-1H-pyrazolo[4,3-d]pyrimidin-7(6H)-one]	> 64	>64 µg/mL	4 (≈ 9.13 µM)	4 (≈ 9.13 µM)	8 (≈ 18.3 µM)	1 (≈ 2.28 µM)	4 (≈ 9.13 µM)	2 (≈ 4.56 µM)	–	–	–	–	–	–	–
Cl.Cl.O=c1[nH]c(NCc2ccc(Cl)c(Cl)c2)nc2cnn(C3CCN(c4ccncc4)C3)c12 (stereo not shown) [Compound 180, 5-((3,4-Dichlorobenzyl)amino)-1-(1-(pyridin-4-yl)pyrrolidin-3-yl)-1H-pyrazolo[4,3-d]pyrimidin-7(6H)-one dihydrochloride]	64	16 µg/mL	4	–	8	2	8	–	4/4	4/4	–	–	–	–	–
Cl.O=c1[nH]c(NCc2ccc(Cl)c(Cl)c2)nc2cnn(CCOCc3cccnc3)c12 [Compound 181, 5-((3,4-Dichlorobenzyl)amino)-1-(2-(pyridin-3-ylmethoxy)ethyl)-1H-pyrazolo[4,3-d]pyrimidin-7(6H)-one hydrochloride]	> 64	>64. ug/ml	4	–	4	1	8	–	4/2	4/1	–	–	–	–	–
O=c1[nH]c(NCc2ccc(Cl)c(Cl)c2)nc2cnn(CC3CCCN3c3ccccn3)c12 (stereo not shown) [Compound 182, 5-((3,4-dichlorobenzyl)amino)-1-((1-(pyridin-2-yl)pyrrolidin-2-yl)methyl)-1H-pyrazolo[4,3-d]pyrimidin-7(6H)-one dihydrochloride]	–	>64 µg/mL	–	–	–	–	–	–	4/8	4/2	> 64	8	4	2	8
COCC(CN(C)C)OCCn1ncc2nc(NCc3ccc(Cl)c(Cl)c3)[nH]c(=O)c21.Cl (stereo not shown) [Compound 183, 5-((3,4-dichlorobenzyl)amino)-1-(2-((1-(dimethylamino)-3-methoxypropan-2-yl)oxy)ethyl)-1H-pyrazolo[4,3-d]pyrimidin-7(6H)-one hydrochloride]	> 64	>64 µg/mL	8	64	64	8	32	32	–	–	–	–	–	–	–
CNCC(COC)OCCn1ncc2nc(NCc3ccc(Cl)c(Cl)c3)[nH]c(=O)c21.Cl (stereo not shown) [Compound 184, 5-((3,4-dichlorobenzyl)amino)-1-(2-((1-methoxy-3-(methylamino)propan-2-yl)oxy)ethyl)-1H-pyrazolo[4,3-d]pyrimidin-7(6H)-one]	> 64	64 µg/mL	8	64	64	8	64	64	–	–	–	–	–	–	–
COCC(OCCn1ncc2nc(NCc3ccc(Cl)c(Cl)c3)[nH]c(=O)c21)c1cccnc1.Cl (stereo not shown) [Compound 185, 5-((3,4-Dichlorobenzyl)amino)-1-(2-(2-methoxy-1-(pyridin-3-yl)ethoxy)ethyl)-1H-pyrazolo[4,3-d]pyrimidin-7(6H)-one hydrochloride]	> 64	>64. ug/ml	8	16	16	4	16	16	–	–	–	–	–	–	–
COC(=O)COCCOCCn1ncc2nc(NCc3ccc(Cl)c(Cl)c3)[nH]c(=O)c21 [Compound 186, methyl 2-(2-(2-(5-((3,4-dichlorobenzyl)amino)-7-oxo-6,7-dihydro-1H-pyrazolo[4,3-d]pyrimidin-1-yl)ethoxy)ethoxy)acetate]	> 64	>64 µg/mL	> 64	8 (≈ 17 µM)	16 (≈ 34 µM)	4 (≈ 8.5 µM)	16 (≈ 34 µM)	4 (≈ 8.5 µM)	–	–	–	–	–	–	–
O=C(O)COCCOCCn1ncc2nc(NCc3ccc(Cl)c(Cl)c3)[nH]c(=O)c21 [Compound 187, 2-(2-(2-(5-((3,4-dichlorobenzyl)amino)-7-oxo-6,7-dihydro-1H-pyrazolo[4,3-d]pyrimidin-1-yl)ethoxy)ethoxy)acetic acid]	> 64	>64 µg/mL	> 64	> 64	> 64	64 (≈ 140 µM)	64 (≈ 140 µM)	64 (≈ 140 µM)	–	–	–	–	–	–	–
O=c1[nH]c(NCc2ccc(Cl)c(Cl)c2)nc2cnn(CCOC3CCS(=O)(=O)CC3)c12 [Compound 188, 5-((3,4-dichlorobenzyl)amino)-1-(2-((1,1-dioxidotetrahydro-2H-thiopyran-4-yl)oxy)ethyl)-1H-pyrazolo[4,3-d]pyrimidin-7(6H)-one]	> 64	>64 µg/mL	8 (≈ 16.4 µM)	16 (≈ 32.9 µM)	16 (≈ 32.9 µM)	4 (≈ 8.22 µM)	8 (≈ 16.4 µM)	4 (≈ 8.22 µM)	–	–	–	–	–	–	–
O=c1[nH]c(NCc2ccc(Cl)c(Cl)c2)nc2cnn(Cc3ccc(O)c(O)c3)c12 [Compound 189, 5-((3,4-dichlorobenzyl)amino)-1-(3,4-dihydroxybenzyl)-1H-pyrazolo[4,3-d]pyrimidin-7(6H)-one]	> 64	64 µg/mL	64 (≈ 148 µM)	16 (≈ 37 µM)	16 (≈ 37 µM)	16 (≈ 37 µM)	16 (≈ 37 µM)	8 (≈ 18.5 µM)	–	–	–	–	–	–	–
COc1ccc(Cn2ncc3nc(NCc4ccc(Cl)c(Cl)c4)[nH]c(=O)c32)cc1OC [Compound 190, 5-((3,4-Dichlorobenzyl)amino)-1-(3,4-dimethoxybenzyl)-1H-pyrazolo[4,3-d]pyrimidin-7(6H)-one]	> 64	>64 µg/mL	> 64	> 64	> 64	> 64	> 64	> 64	–	–	–	–	–	–	–
